Tests used:
[1] = biological target: PI3-kinase p110-alpha/p85-alpha (Homo sapiens, UniProt P42336); experiment: null: The kinase activity was measured by using the commercial ADP Hunter Plus assay available from DiscoveRx (#33-016), which is a homogeneous assay to measure the accumulation of ADP, a universal product of kinase activity. […] The reaction was carried out for 1 hour at 25° C. Reagent A and B were sequentially added to the wells and plates were incubated for 30 min at 37° C. Fluorescence counts were read in a Victor instrument (Perkin Elmer) with the recommended settings (544 and 580 nm as excitation and emission wavelengths, respectively).; format: protein-complex assay
[2] = biological target: DNA-dependent protein kinase catalytic subunit (Homo sapiens, UniProt P78527); experiment: ADP Hunter Plus Assay: The kinase activity was measured by using the commercial ADP Hunter Plus assay available from DiscoveRx (#90-0083), which is a homogeneous assay to measure the accumulation of ADP, a universal product of kinase activity. The enzyme, DNA-PK was purchased from Promega (#V5811). The assay was done following the manufacturer recommendations with slight modifications: Mainly the kinase buffer was replace by 15 mM HEPES, pH 7.5, 10 mM MgCl2, 20 mM NaCl, 1 mM EGTA, 0.1 mg/mL BGG, 0.02% Tween 20. The DNA-PK was assayed in a titration experiment to determine the optimal protein concentration for the inhibition assay. To calculate the […] of the Compounds, serial 1:3 dilutions of the compounds were added to the enzyme at a fixed concentration (2 U/uL). The enzyme was preincubated with the inhibitor and 200 uM DNA substrate and then ATP was added to a final 75 uM concentration. Reaction was carried out for 1 hour at 37° C. Reagent A and B were sequentially added to the wells and plates were incubated for 30 min at RT. Fluorescence counts were read in a EnVision instrument (Perkin Elmer) with the recommended settings (550 and 590 nm as excitation and emission wavelengths, respectively).
Sequence of DNA-dependent protein kinase catalytic subunit (P78527 whole entry): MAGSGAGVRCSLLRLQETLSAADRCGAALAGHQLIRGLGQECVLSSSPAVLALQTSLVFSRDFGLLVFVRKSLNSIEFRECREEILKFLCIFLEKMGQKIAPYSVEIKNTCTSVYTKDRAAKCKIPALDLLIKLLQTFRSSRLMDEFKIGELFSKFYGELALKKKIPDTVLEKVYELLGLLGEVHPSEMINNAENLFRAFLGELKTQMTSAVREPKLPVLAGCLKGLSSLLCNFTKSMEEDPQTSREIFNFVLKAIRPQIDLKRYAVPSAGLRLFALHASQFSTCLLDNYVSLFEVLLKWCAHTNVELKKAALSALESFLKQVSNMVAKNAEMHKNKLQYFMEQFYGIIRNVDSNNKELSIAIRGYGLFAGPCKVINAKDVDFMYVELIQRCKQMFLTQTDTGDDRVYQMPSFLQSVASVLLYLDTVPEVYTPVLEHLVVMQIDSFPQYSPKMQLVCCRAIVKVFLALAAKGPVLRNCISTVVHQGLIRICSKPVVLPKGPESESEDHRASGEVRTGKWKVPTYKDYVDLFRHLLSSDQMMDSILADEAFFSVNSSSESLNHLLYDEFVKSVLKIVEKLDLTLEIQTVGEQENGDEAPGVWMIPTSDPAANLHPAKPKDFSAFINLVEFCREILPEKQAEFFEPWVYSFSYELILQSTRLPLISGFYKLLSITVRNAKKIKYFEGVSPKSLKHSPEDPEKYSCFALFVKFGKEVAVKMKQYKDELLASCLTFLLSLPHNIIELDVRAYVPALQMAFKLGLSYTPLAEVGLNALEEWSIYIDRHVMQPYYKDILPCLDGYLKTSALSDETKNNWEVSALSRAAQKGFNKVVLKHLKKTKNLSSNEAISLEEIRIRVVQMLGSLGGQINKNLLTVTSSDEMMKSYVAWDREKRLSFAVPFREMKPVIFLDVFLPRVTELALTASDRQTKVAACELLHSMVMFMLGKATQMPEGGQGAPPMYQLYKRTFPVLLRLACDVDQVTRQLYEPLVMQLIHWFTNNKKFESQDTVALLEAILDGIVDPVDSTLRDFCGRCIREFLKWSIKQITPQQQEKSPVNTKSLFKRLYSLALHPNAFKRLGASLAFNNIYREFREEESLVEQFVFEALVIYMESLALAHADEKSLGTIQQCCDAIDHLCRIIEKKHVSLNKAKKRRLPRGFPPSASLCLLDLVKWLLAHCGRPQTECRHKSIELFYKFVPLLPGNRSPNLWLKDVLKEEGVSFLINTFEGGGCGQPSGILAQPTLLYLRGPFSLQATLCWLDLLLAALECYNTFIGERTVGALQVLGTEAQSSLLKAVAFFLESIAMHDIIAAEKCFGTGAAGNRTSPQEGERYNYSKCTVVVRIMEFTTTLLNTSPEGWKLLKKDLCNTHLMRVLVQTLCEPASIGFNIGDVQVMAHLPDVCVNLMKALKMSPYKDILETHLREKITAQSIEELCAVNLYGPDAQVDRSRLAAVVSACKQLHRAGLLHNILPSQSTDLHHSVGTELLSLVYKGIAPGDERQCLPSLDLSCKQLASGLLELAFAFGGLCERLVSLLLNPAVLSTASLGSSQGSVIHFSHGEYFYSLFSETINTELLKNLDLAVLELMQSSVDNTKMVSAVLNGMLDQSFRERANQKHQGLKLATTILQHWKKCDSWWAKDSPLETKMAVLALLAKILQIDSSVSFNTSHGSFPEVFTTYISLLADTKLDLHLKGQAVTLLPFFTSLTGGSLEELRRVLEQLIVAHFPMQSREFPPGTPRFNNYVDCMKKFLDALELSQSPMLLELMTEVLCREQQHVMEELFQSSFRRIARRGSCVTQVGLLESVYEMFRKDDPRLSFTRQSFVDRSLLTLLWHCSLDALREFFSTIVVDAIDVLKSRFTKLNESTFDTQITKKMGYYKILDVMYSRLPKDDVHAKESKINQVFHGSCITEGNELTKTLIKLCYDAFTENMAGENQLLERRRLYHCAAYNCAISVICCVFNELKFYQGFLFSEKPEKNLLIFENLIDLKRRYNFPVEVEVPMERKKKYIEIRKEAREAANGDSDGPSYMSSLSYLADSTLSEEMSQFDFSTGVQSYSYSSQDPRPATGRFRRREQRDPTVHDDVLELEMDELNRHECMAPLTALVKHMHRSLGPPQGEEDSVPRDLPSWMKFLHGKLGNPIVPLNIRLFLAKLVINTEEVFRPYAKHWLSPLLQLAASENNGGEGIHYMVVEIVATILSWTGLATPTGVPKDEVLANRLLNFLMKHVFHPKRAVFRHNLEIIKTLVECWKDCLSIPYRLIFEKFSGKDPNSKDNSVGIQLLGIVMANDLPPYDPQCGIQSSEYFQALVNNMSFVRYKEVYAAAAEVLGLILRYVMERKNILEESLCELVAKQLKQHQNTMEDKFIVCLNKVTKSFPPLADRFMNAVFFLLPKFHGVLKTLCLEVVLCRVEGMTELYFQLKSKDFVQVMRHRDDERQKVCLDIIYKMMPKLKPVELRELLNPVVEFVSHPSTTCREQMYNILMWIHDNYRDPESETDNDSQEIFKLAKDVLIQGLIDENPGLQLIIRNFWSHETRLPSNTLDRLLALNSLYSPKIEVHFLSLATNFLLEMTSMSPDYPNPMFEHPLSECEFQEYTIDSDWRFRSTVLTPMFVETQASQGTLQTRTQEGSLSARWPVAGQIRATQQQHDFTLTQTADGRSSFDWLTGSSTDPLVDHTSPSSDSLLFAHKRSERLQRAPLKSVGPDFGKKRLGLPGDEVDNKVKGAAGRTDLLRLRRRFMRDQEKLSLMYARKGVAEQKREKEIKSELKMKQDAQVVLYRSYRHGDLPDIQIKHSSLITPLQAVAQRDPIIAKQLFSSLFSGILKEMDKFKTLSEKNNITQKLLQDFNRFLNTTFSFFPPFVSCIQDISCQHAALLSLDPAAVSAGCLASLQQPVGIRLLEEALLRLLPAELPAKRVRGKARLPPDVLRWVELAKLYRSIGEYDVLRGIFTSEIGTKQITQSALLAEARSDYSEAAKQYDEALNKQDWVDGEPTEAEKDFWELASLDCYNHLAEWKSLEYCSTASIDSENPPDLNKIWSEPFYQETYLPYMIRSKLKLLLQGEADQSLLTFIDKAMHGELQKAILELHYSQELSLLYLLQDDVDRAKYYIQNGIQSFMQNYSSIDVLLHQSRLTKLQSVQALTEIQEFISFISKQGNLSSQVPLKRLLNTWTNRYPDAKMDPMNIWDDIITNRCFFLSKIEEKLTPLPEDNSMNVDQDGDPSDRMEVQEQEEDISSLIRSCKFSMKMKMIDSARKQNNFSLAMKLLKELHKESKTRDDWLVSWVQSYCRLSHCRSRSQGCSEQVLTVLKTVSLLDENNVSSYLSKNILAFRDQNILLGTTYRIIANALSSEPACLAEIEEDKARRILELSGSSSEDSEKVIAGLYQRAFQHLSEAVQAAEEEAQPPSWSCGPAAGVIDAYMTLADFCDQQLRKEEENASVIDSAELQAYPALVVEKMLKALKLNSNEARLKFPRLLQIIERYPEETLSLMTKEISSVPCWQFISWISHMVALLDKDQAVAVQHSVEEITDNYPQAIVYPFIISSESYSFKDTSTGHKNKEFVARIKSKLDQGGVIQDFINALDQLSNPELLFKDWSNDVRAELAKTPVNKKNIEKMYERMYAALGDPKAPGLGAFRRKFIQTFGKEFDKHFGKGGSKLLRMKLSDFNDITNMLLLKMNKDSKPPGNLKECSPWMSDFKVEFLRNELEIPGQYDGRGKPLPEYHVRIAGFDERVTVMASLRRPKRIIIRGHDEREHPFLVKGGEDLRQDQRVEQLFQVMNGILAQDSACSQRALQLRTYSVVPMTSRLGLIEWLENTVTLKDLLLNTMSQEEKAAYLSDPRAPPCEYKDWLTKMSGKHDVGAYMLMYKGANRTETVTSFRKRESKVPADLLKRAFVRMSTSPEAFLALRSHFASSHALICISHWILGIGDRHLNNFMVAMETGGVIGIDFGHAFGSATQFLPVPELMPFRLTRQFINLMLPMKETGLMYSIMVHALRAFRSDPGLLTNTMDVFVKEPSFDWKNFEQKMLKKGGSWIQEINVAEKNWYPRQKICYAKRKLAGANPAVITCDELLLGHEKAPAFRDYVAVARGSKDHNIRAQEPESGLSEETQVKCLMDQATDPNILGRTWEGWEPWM

Row | Structure (SMILES) | IC50 [1] [µM] | IC50 [2] [µM]
1 | CNc1nc2cc(Cl)ccc2n1-c1nc2c(c(C3(S(C)(=O)=O)CCC3)n1)OC[C@@H]1COCCN21 | ≥ 50 | 10
2 | CS(=O)(=O)C1(c2nc(-c3cncc4[nH]ccc34)nc3c2OCC2COCCN32)CCOCC1 (stereo not given) | 2 | ≥ 25
3 | CCOC(=O)N1CCC(c2nc(-c3cccc4[nH]ccc34)nc3c2OC[C@@H]2COCCN32)(S(C)(=O)=O)CC1 | 7.38 | 10
4 | CS(=O)(=O)Cc1nc(-c2cccc3[nH]ccc23)nc2c1OCC1COCCN21 (stereo not given) | 6.6 | 10
5 | CS(=O)(=O)C1(c2nc(-c3ccnc4[nH]ccc34)nc3c2OCC2COCCN32)CCOCC1 (stereo not given) | 8.5 | 10
6 | Cc1cc2c(-c3nc4c(c(C5(S(C)(=O)=O)CCOCC5)n3)OCC3COCCN43)cccc2[nH]1 (stereo not given) | 10.3 | ≥ 25
7 | CC1(c2nc(-c3cccc4[nH]ccc34)nc3c2OCC2COCCN32)CCCS1(=O)=O (stereo not given) | 6.9 | 10
8 | CNc1nc2ccccc2n1-c1nc2c(c(C(C)(C)[S@TB1](C)(=O)=O)n1)OCCC1COCCN21 (stereo not given) |  | 1.88
9 | O=S(=O)(Cc1nc(-c2cccc3[nH]ccc23)nc2c1OCC1COCCN21)C(F)(F)F (stereo not given) | 14.9 | ≥ 25
10 | CNc1nc2ccccc2n1-c1nc2c(c(C3(S(C)(=O)=O)CCOCC3)n1)OCC1COCCN21 (stereo not given) | ≥ 50 | 10
11 | CS(=O)(=O)C1(c2nc(-c3cccc4[nH]ccc34)nc3c2OCC2COCCN32)CCOCC1 (stereo not given) | 13.3 | 
12 | CC(C)(c1nc(-c2cccc3[nH]ccc23)nc2c1OCC[C@H]1COCCN21)S(C)(=O)=O | 19.3 | 
13 | CNc1nc2ccccc2n1-c1nc2c(c(C(C)(C)O)n1)OCC1COCCN21 (stereo not given) | 2.17 | 3.18
14 | CC(C)(c1nc(-c2c(F)ccc3[nH]ccc23)nc2c1OCC1COCCN21)S(C)(=O)=O (stereo not given) | 7.9 | 
15 | COc1ccc(-c2nc3c(c(C4(S(C)(=O)=O)CCOCC4)n2)OCC2COCCN32)c2cc[nH]c12 (stereo not given) | 16.9 | ≥ 25
16 | CS(=O)(=O)C1(c2nc(-c3cccc4[nH]ccc34)nc3c2OC[C@@H]2COCCN32)CCOCC1 | 4.9 | 
17 | CC(C)(O)c1nc(-c2cc(F)cc3[nH]ccc23)nc2c1OC[C@@H]1COCCN21 | 2.27 | 0.886
18 | CS(=O)(=O)C1(c2nc(-c3cccc4[nH]ccc34)nc3c2OCC2COCCN32)CC1 (stereo not given) | 2.5 | ≥ 25
19 | C[S@TB17](=O)(=O)Nc1nc(-c2cccc3[nH]ccc23)nc2c1OCC1COCCN21 (stereo not given) | 6.95 | 10
20 | CC(C)(c1nc(-c2ccnc3[nH]ccc23)nc2c1OCC1COCCN21)S(C)(=O)=O (stereo not given) | 0.67 | 2.82
21 | CS(=O)(=O)C1(c2nc(-c3cc(F)cc4[nH]ccc34)nc3c2OCC2COCCN32)CCOCC1 (stereo not given) | 6 | 10
22 | CNc1nc2ccccc2n1-c1nc2c(c(C(C)(C)S(C)(=O)=O)n1)OCC1COCCN21 (stereo not given) | 2.8 | 

Row | Structure (SMILES) | IC50 [1] [µM] | IC50 [2] [µM]
23 | c1cc(-c2nc(-c3cccc4[nH]ccc34)c3c(n2)N2CCOCC2CO3)c2cc[nH]c2c1 (stereo not given) | 6.55 | 10
24 | CS(=O)(=O)c1cccc(-c2nc(-c3cccc4[nH]ccc34)nc3c2OCC2COCCN32)c1 (stereo not given) | 10.6 | 5.04
25 | COc1cc(-c2nc3c(c(C4([S@TB1](C)(=O)=O)CCOCC4)n2)OCCC2COCCN32)c2cc[nH]c2c1 (stereo not given) | 23.3 | ≥ 25
26 | COc1cc(-c2nc3c(c(C4(S(C)(=O)=O)CCOCC4)n2)OCC2COCCN32)c2cc[nH]c2c1 (stereo not given) | 5 | 10
27 | C[S@TB17](=O)(=O)C1(c2nc(-c3cc(F)cc4[nH]ccc34)nc3c2OCCC2COCCN32)CCOCC1 (stereo not given) | > 10 | ≥ 25
28 | CC(C)(C#N)c1nc(-c2cccc3[nH]ccc23)nc2c1OCC1COCCN21 (stereo not given) | 1.67 | 10
29 | CS(=O)(=O)C1(c2nc(-c3c(F)ccc4[nH]ccc34)nc3c2OCC2COCCN32)CCOCC1 (stereo not given) | 21 | 10
30 | CC(C)Nc1nc2ccccc2n1-c1nc2c(c(C(C)(C)S(C)(=O)=O)n1)OC[C@@H]1COCCN21 | 6.61 | 4.3
31 | CC(C)(c1nc(-c2cccc3[nH]ccc23)nc2c1OCC1COCCN21)S(C)(=O)=O (stereo not given) | 1.7 | 17.3
32 | CNc1nc2ccc(Cl)cc2n1-c1nc2c(c(C3(S(C)(=O)=O)CCC3)n1)OC[C@@H]1COCCN21 | ≥ 50 | 10
33 | CC(C)(c1nc(-c2cccc3[nH]ccc23)nc2c1OCC1COCCN21)S(=O)(=O)C1CC1 (stereo not given) | 2.4 | 
34 | CC(C)(O)c1nc(-c2cccc3[nH]ccc23)nc2c1OCC1COCCN21 (stereo not given) | 2.39 | 7.21
35 | CCNc1nc2ccccc2n1-c1nc2c(c(C(C)(C)S(C)(=O)=O)n1)OC[C@@H]1COCCN21 | 2.65 | 0.196
36 | CN1CCC(c2nc(-c3cccc4[nH]ccc34)nc3c2OCC2COCCN32)(S(C)(=O)=O)CC1 (stereo not given) | 12.5 | ≥ 25
37 | CS(=O)(=O)C1(c2nc(-c3cccc4[nH]ccc34)nc3c2OC[C@@H]2COCCN32)CCC1 | 3.16 | 10
38 | CCCNc1nc2ccccc2n1-c1nc2c(c(C(C)(C)S(C)(=O)=O)n1)OC[C@@H]1COCCN21 | 6.25 | 6.65
39 | CS(=O)(=O)C1(c2nc(-c3cccc4[nH]ccc34)nc3c2OC[C@@H]2COCCN32)CCNCC1 | 1.98 | 4.93
40 | CNc1nc2ccccc2n1-c1nc2c(c(C3(S(C)(=O)=O)CCOCC3)n1)OCCC1COCCN21 (stereo not given) | ≥ 50 | 10
41 | CNc1nc2ccccc2n1-c1nc2c(c(C(C)(C)S(C)(=O)=O)n1)OC[C@@H]1COCCN21 | 1.9 | 1.51
42 | CC(C)(c1nc(-c2cccc3[nH]ncc23)nc2c1OC[C@H]1COCCN21)S(C)(=O)=O | 0.4 | 4.15
43 | CS(=O)(=O)C1(c2nc(-c3cccc4[nH]ccc34)nc3c2OCC[C@@H]2COCCN32)CCOCC1 | ≥ 50 | ≥ 25
44 | CS(=O)(=O)C1(c2nc(-c3cccc4[nH]ccc34)nc3c2OC[C@H]2COCCN32)CCOCC1 | 11.5 | 

Source: ChEMBL document CHEMBL3886972, “Chemical entities” (2016)
